The source made the active and inactive calls.
Experiments:
[1] = target: T1, High affinity choline transporter 1 (Homo sapiens, UniProt Q9GZV3); experiment: CHT inhibitors, dose response, cell-based, 5-point CRC, membrane potential dye (AID 504840); type: functional
T1 sequence (Q9GZV3 whole entry): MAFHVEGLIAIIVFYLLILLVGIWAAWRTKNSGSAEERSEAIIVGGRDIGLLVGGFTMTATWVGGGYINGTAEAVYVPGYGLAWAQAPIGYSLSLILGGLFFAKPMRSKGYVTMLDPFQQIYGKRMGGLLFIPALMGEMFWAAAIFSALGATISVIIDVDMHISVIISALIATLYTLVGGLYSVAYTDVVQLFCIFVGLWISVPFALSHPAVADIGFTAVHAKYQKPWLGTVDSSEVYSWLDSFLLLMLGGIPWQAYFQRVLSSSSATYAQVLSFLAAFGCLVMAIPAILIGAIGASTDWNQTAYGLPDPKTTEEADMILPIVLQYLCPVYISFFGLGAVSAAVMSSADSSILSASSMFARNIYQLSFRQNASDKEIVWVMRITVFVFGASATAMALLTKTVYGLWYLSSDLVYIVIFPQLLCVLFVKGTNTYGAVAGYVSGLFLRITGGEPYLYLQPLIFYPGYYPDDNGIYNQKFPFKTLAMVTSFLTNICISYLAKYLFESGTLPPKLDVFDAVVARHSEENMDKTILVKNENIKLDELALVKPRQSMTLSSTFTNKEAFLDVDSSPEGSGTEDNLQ

Exodeoxyribonuclease V = Exodeoxyribonuclease V (Escherichia coli (strain K12), UniProt P04993+P07648+P08394); experiment: E. coli RecBCD inhibitors, dose response, counter-screen for AddAB inhibitor project, absorbance, V66 E. coli, mutant T4 phage (AID 492957); type: functional, cell-based, Escherichia coli str. K-12 substr. MG1655
[2] = Counterscreen for AddAB inhibitors: absorbance-based bacterial cell-based high throughput dose response assay for inhibitors of bacterial viability. [Related pubchem assays (depositor defined):AID435030, AID449728, AID449731, AID488942, AID488955, AID488956]; type: functional
Estrogen receptor = target: T2, Estrogen receptor (Homo sapiens, UniProt P03372);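 also: potency for inhibiting coactivator peptide recruitment to the receptor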
T2 sequence (P03372 whole entry): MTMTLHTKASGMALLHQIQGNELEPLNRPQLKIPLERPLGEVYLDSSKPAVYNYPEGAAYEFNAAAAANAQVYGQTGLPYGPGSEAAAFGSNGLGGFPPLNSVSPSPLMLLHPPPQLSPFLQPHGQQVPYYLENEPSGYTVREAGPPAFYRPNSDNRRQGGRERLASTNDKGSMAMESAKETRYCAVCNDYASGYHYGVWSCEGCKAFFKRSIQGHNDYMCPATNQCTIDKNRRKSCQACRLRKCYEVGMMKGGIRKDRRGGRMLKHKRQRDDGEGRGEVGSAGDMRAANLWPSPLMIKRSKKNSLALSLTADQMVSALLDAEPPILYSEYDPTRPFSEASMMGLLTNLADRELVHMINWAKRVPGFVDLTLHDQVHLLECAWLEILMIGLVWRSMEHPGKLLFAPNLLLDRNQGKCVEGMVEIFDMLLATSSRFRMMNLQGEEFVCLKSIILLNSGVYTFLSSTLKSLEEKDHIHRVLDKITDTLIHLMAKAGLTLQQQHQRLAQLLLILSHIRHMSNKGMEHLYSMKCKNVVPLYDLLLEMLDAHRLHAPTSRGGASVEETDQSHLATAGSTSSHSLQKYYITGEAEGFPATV

Coagulation factor XII = target: T3, Coagulation factor XII (Homo sapiens, UniProt P00748); type: functional;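 also: activated factor XIIa alpha cleaving a fluorogenic AMC peptide substrate; inhibitor potency from loss of enzyme activity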
T3 sequence (P00748 whole entry): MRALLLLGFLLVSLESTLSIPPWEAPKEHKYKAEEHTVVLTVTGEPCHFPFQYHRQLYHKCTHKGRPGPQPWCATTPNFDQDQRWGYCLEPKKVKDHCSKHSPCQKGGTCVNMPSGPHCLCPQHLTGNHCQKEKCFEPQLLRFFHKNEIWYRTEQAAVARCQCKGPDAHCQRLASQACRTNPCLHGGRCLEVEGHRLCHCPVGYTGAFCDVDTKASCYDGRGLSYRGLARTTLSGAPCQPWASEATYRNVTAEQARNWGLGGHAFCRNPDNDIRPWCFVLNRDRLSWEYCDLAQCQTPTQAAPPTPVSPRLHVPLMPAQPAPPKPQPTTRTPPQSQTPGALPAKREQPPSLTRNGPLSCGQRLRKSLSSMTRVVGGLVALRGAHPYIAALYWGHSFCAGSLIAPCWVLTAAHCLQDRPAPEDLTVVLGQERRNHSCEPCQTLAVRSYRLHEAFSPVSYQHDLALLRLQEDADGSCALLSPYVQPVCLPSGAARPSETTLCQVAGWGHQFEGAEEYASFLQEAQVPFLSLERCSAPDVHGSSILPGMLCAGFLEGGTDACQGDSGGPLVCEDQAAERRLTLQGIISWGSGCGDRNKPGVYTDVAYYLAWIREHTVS

[3] = system: Streptococcus sp. 'group A'; experiment: growth inhibition of control SK(-) GAS strain, dose response, counter-screen for streptokinase expression inhibitor project, luminescence, kanamycin, BacTiterGlo, confirmation (AID 1900); type: functional, organism-based
Streptokinase A = target: T4, Streptokinase A (Streptococcus pyogenes serotype M1, UniProt P10520); experiment: S. pyogenes streptokinase expression inhibitors, potency, dose response, plasminogen activation absorbance, OD405 (AID 1914); type: functional, Streptococcus pyogenes M1 GAS;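 also: secreted streptokinase activity via plasminogen activation per viability signal from cell pellet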
T4 sequence (P10520 whole entry): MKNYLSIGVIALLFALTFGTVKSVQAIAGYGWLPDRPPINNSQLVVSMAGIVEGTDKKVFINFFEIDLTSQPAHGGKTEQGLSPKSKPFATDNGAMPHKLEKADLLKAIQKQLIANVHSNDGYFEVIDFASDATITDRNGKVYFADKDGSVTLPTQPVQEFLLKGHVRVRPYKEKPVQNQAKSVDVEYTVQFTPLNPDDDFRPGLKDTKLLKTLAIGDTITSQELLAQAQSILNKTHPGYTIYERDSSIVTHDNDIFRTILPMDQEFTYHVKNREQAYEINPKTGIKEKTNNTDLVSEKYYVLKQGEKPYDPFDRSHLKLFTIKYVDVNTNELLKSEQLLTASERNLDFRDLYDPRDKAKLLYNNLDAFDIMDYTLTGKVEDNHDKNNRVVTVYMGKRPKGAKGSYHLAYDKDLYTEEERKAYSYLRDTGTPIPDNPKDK

Streptococcus = experiment: Group A Streptococcus viability loss, dose response, counter-screen for streptokinase expression inhibitor project, luminescence, BacTiterGlo (AID 1915); type: functional, organism-based;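 also: potency for reduction of bacterial viability or growth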
[4] = Luminescence Cell-Based Dose Retest to Confirm Inhibitors of Cancer Stem Cells. [Related pubchem assays (depositor defined):AID2717, AID2721]; type: functional; conditions: Homo sapiens
[5] = target: Intestinal-type alkaline phosphatase (Mus musculus, UniProt P24822); experiment: PubChem AID 488785; type: functional
[6] = target: T5, Alkaline phosphatase, tissue-nonspecific isozyme (Homo sapiens, UniProt P05186); experiment: TNAP enzyme inhibition by screening hits, dose response, selectivity assay for mouse IAP inhibitor project, biochemical, human TNAP, uHTS hits (AID 488906); type: functional
T5 sequence (P05186 whole entry): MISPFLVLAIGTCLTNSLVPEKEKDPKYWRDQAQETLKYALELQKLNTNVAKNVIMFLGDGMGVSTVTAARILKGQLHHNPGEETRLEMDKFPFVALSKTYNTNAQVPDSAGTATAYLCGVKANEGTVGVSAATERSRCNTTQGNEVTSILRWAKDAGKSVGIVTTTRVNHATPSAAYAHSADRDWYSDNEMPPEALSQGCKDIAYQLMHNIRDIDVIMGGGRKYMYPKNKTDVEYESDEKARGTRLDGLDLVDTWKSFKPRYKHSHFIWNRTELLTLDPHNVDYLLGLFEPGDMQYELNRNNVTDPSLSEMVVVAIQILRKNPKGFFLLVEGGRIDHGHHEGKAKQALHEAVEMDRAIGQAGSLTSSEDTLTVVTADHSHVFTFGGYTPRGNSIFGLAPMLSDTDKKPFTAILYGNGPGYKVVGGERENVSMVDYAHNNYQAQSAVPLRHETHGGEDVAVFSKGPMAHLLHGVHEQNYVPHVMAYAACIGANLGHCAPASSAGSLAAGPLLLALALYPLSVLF

[7] = target: Intestinal-type alkaline phosphatase (Homo sapiens, UniProt P09923); experiment: inhibition of human intestinal alkaline phosphatase – biochemical, dose response (AID 488876); type: functional
Nonstructural protein 1 = Nonstructural protein 1 (Influenza A virus, UniProt Q194T2); type: functional, Influenza A virus (A/California/07/2009(H1N1))
[8] = target: T6, Tyrosine-protein phosphatase non-receptor type 7 (Homo sapiens, UniProt P35236); experiment: redox-dependent HePTP inhibition, mechanism study, biochemical, fluorescence (AID 2068); type: functional
T6 sequence (P35236 whole entry): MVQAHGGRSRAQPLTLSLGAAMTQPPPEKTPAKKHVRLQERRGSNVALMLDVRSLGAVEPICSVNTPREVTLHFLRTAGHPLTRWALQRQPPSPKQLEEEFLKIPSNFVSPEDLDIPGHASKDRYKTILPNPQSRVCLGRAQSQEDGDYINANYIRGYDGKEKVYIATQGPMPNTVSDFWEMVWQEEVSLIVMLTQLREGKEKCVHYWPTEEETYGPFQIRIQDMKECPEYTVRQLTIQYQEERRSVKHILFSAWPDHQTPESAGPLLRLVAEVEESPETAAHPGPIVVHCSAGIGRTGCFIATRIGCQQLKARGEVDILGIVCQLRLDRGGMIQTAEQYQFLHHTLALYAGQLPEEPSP

[9] = target: T7, Dual specificity protein phosphatase 6 (Rattus norvegicus, UniProt Q64346); type: functional;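 also: confirmatory in vitro dose-response testing of MKP-3 inhibition; recombinant His-tagged MKP-3 made in E. coli BL21 with OMFP substrate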
T7 sequence (Q64346 whole entry): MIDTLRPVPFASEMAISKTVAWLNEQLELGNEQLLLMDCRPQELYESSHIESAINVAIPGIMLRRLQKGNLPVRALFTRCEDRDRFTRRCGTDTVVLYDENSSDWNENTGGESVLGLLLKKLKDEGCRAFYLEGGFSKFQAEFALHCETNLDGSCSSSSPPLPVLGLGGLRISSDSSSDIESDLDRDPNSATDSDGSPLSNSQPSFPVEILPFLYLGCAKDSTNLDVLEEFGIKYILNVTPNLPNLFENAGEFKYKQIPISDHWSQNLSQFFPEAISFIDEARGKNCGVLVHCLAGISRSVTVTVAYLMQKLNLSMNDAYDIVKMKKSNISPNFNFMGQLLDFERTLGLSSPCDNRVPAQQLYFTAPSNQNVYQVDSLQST

Vero = experiment: cells; type: functional, cell-based; conditions: Chlorocebus sabaeus
Tumor necrosis factor = Tumor necrosis factor (Homo sapiens, UniProt P01375); experiment: TNFa-triggered NF-kB activation inhibitors, SAR follow-up, cell-based, revised (AID 2337); type: functional
[10] = target: T8, Nucleotide-binding oligomerization domain-containing protein 1 (Homo sapiens, UniProt Q9Y239); experiment: NOD1 signaling inhibitors, SAR follow-up, revised (AID 2333); type: functional
T8 sequence (Q9Y239 whole entry): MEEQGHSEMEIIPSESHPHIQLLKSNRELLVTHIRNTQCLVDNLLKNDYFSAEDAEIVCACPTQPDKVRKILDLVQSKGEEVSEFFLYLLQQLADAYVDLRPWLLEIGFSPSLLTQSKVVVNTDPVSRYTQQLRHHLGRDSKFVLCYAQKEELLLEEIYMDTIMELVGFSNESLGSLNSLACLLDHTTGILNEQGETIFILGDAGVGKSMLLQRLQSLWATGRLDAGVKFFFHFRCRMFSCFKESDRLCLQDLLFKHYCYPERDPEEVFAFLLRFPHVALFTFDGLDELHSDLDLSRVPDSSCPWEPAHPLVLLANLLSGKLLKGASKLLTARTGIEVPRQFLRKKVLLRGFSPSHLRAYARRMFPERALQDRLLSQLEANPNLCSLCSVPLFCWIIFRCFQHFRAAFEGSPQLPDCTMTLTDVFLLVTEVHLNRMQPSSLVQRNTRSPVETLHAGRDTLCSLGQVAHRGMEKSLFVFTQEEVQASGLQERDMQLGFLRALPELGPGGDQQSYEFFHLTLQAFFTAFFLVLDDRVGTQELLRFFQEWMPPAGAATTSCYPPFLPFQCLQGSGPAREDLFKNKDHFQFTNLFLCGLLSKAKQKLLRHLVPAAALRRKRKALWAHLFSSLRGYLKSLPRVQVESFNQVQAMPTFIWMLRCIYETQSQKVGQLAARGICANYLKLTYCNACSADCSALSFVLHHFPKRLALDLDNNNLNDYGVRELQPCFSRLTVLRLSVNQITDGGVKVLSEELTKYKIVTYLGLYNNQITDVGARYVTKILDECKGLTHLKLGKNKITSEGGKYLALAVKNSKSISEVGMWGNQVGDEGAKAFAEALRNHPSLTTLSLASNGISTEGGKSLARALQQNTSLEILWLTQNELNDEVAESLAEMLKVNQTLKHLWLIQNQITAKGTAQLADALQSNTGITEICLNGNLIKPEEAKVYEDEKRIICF

HEK293 = experiment: cells; conditions: Homo sapiens;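 also: cells exposed to compound for 14 hours overnight before viability readout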
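For AC50 in this document: cells exposed to compound for roughly 70 hours or longer before luminescence read.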

Sequence of Exodeoxyribonuclease V (P04993 whole entry): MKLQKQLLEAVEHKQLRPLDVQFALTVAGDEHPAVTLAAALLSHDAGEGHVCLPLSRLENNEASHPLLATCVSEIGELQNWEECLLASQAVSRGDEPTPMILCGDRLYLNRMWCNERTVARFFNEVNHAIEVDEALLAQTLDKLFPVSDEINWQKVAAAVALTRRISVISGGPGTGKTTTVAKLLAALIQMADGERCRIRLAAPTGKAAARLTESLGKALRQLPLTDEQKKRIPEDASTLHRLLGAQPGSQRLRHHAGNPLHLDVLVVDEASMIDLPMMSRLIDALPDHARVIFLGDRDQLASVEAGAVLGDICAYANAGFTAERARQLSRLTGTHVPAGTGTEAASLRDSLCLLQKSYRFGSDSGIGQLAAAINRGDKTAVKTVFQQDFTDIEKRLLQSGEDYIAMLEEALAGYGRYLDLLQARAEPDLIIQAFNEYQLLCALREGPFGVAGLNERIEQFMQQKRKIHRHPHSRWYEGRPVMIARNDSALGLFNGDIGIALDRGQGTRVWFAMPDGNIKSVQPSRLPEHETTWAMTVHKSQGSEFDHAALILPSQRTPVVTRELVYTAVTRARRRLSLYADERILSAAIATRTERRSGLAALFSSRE
Sequence of Exodeoxyribonuclease V (P07648 whole entry): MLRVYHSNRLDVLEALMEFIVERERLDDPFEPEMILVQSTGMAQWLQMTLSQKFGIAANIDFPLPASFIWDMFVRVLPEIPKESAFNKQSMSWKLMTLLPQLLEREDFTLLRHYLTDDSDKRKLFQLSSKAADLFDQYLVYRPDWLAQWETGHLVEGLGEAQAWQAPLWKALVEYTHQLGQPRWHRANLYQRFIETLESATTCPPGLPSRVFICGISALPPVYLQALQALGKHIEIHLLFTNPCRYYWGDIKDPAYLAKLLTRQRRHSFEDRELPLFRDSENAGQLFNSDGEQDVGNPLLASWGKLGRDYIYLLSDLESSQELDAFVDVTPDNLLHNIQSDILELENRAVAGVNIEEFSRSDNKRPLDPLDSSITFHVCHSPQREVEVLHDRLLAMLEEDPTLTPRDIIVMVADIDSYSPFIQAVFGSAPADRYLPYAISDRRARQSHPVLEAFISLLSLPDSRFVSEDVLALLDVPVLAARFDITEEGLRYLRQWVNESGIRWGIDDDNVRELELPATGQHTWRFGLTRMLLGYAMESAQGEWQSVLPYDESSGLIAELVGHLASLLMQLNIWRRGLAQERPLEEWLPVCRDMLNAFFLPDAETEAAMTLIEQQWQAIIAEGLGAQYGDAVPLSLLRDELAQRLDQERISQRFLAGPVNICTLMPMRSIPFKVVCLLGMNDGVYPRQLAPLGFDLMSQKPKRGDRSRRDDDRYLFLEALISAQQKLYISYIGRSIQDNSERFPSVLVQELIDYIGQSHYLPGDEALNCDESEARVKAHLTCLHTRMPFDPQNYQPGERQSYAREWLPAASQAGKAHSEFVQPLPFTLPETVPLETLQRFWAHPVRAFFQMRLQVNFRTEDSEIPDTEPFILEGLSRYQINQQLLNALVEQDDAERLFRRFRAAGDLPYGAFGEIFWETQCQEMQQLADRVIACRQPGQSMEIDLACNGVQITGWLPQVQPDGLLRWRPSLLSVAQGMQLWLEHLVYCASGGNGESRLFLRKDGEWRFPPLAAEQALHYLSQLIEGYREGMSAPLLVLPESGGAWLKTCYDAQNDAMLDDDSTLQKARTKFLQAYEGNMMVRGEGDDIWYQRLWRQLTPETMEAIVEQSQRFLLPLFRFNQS
Sequence of Exodeoxyribonuclease V (P08394 whole entry): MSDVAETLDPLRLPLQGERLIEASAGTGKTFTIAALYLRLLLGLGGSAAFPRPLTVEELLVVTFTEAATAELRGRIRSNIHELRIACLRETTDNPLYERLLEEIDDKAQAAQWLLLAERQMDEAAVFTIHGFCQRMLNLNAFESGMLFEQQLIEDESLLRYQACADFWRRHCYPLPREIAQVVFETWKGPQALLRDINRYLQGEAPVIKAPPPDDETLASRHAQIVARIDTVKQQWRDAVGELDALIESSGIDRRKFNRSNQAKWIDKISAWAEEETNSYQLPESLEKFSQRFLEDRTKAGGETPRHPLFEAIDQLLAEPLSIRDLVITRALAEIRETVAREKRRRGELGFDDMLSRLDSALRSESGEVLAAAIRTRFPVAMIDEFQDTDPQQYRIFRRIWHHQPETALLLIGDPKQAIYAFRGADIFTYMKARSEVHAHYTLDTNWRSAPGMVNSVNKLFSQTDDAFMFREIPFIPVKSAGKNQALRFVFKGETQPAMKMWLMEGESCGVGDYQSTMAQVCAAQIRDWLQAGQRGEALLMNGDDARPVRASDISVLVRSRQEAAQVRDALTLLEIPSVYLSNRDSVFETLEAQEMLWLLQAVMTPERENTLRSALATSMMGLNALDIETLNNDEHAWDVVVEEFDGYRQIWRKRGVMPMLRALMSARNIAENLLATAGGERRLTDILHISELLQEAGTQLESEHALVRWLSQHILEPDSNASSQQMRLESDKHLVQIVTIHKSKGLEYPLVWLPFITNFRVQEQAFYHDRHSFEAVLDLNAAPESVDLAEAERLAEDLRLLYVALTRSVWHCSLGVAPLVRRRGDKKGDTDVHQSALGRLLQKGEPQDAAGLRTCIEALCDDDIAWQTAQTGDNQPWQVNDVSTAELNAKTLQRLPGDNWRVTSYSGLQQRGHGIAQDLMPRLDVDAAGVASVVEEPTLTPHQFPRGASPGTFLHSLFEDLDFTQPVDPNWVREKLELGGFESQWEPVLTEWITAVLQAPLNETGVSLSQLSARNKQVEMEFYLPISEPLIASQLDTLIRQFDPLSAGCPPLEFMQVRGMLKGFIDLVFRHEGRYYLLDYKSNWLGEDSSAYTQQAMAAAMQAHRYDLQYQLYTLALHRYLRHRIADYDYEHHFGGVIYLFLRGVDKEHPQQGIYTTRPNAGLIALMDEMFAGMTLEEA
Sequence of Intestinal-type alkaline phosphatase (Mus musculus, UniProt P24822) (P24822 whole entry): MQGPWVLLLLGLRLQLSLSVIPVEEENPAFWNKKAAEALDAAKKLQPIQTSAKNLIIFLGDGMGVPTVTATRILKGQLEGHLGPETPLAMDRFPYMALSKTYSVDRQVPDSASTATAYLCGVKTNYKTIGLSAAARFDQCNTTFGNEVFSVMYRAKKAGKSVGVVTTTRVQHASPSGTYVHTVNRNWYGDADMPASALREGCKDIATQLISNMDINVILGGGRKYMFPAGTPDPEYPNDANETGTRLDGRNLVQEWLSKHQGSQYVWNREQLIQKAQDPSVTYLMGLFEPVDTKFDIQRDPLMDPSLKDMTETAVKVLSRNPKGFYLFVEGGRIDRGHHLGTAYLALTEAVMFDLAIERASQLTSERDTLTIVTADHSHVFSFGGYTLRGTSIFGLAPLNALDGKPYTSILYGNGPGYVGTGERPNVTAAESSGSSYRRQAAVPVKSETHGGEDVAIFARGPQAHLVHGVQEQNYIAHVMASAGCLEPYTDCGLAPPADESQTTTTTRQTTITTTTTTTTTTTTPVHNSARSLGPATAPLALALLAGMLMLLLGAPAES
Sequence of Intestinal-type alkaline phosphatase (Homo sapiens, UniProt P09923) (P09923 whole entry): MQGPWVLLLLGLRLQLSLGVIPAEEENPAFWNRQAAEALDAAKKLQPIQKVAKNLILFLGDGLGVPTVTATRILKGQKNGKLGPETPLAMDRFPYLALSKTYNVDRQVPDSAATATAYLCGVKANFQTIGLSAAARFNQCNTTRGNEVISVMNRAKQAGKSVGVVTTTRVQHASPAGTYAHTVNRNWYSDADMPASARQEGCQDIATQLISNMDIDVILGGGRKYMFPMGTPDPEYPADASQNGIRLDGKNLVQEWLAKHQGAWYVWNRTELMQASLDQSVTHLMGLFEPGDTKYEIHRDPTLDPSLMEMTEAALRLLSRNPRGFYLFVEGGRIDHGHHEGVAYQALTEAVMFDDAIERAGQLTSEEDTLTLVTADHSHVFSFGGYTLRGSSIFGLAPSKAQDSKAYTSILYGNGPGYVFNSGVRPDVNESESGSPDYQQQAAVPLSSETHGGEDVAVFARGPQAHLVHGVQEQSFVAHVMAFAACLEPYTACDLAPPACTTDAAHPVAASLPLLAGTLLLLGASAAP
Sequence of Nonstructural protein 1 (Q194T2 whole entry): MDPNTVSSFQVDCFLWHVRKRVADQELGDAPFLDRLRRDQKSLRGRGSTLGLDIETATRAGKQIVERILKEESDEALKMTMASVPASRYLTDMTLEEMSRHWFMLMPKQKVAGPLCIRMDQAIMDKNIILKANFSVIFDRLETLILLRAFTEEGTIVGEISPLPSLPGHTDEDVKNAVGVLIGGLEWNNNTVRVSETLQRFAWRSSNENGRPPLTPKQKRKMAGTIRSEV
Sequence of Tumor necrosis factor (P01375 whole entry, the tested form may be a part): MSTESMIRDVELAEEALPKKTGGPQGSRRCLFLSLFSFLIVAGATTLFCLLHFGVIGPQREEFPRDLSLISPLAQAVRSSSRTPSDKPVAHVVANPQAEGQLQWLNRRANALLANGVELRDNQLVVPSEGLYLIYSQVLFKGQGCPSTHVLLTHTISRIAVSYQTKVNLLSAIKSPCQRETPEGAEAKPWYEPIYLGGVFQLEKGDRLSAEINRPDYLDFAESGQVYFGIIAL

SMILES: CN(CCNC(=O)CN1CCN(Cc2ccccc2Cl)C1=O)Cc1ccccc1
- IC50 [1]: 15.9 µM (active)

SMILES: CCOc1ccc(NC(S)=NCc2nc3ccccc3[nH]2)cc1
- IC50 (Exodeoxyribonuclease V): > 119 µM (inactive)
- IC50 [2]: > 119 µM (inactive)

SMILES: Cc1ccc(-c2nnc3n2N=C(c2ccc(Br)cc2)CS3)cc1
- IC50 (Estrogen receptor): 42.3 µM (not active)
- IC50 (Coagulation factor XII): > 50 µM (inactive)

SMILES: S=C(NCCC(c1ccccc1)c1ccccc1)Nc1cccc(Cl)c1
- EC50 [3]: 3.81 µM (active)
- EC50 (Streptokinase A): 15.3 µM (active)
- EC50 (Streptococcus): 10.5 µM (active)
- AC50 [4]: 2.27 µM (active)
- IC50 [5]: 6.96 µM (active)
- IC50 [6]: 22.9 µM (active)
- IC50 [7]: 57.7 µM (active)

SMILES: COc1cc(COCC(O)CN2CCOCC2)cc(OC)c1OC (stereo unspecified)
- IC50 (Coagulation factor XII): > 50 µM (inactive)

SMILES: COCc1ccc(CN2CCC(C(=O)Nc3cccc(-c4cccc(Cl)c4)c3)CC2)o1
- IC50 [5]: 2.01 µM (active)
- IC50 (Nonstructural protein 1): > 100 µM (active)
- IC50 [6]: 17.8 µM (active)
- IC50 [7]: > 100 µM (inactive)

SMILES: COc1cc(C(=S)NC2CCCC2)ccc1O
- IC50 [8]: 2.58 µM (active)
- IC50 [9]: > 100 µM (inactive)

SMILES: C/C(=N/OCO/N=C(/C)c1ccc(F)cc1)c1ccc(F)cc1
- IC50 (Vero): > 12.5 µM (active)

SMILES: C/C(=N\N=C(N)N)c1ccc(Cl)c(Cl)c1
- IC50 [1]: 13.8 µM (active)

SMILES: CCCCOc1ccc(Cc2cnc(N)nc2N)cc1
- IC50 (Exodeoxyribonuclease V): 114 µM (inactive)
- IC50 [2]: 85.2 µM (inactive)

SMILES: Cc1ccc(-c2nc3ccccc3s2)cc1
- IC50 (Tumor necrosis factor): > 20 µM (inactive)
- IC50 [10]: > 20 µM (inactive)
- IC50 (HEK293): > 20 µM (inactive)

— ChEMBL document CHEMBL1201862, “PubChem BioAssay data set” (2004)
